The subject of one assay is Escherichia coli. Put plainly: static biofilm assay on antimicrobially finished silicone surfaces (cfu/cm^2). The format is cell-based. Particulars: silicone surface, after intensive washing. The method, then:
(§1) The effect of the antimicrobial finishing of the investigated surfaces was determined by means of a […] biofilm assay. For this, the surfaces to be tested were cut into round disks which fit into the holes of 24-well microtiter plates. In order to prevent the surfaces from slipping during the assay, the surfaces were immobilized on the bottom of the microtiter plates with the help of glass joint grease. The formation of biofilms was carried out starting from a preculture. For this, 20 ml of the standard commercial TSBY medium (Difco Laboratories, MI, USA) were inoculated with the help of a steady-state overnight culture of Staphylococcus epidermidis DSM1798, Escherichia coli DSM 5698, Proteus mirabilis DSM 4479 or Escherichia coli BL21 (DE3) with an optical density of 0.1. The preculture was incubated for 2 to 4 hours with agitation (at 200 rpm) and 37° C. until an optical density of from 2 to 3 was reached. In order to start the biofilm assay, the preculture was diluted to an optical density of 0.0004 in 5% TSBY in saline (0.9% NaCl) (ca. 10^5 cfu/ml). 1 ml of this was placed onto the surfaces in the 24-well plate and then incubated at 37° C. with gentle vibration at 50 rpm (revolutions per minute), so that a biofilm could form on the surface. The biofilm on the surfaces was analyzed after one hour (1 h) and after 24 hours (24 h) (and optionally 5 hours). For this, the planktonic cells were removed. The surfaces were then removed from the microtiter plate and briefly washed in sodium chloride solution, saline (0.9% NaCl). The adherent cells in the biofilm were then detached from the surface by means of an ultrasound treatment. For this purpose, the surfaces were transferred to a Falcon tube (50 ml volume) with 2 ml of saline and subjected to ultrasound for five minutes in an ultrasound water bath. The resulting bacterial suspension was diluted and plated out on TSBY agar plates. After 18 hours at 37, the resulting colonies were counted and back-calculated to the number of cells on the surface.

Assay [1] relates to Staphylococcus epidermidis DSM1798. The assay is described as above. In kind it is cell-based. Particulars: silicone surface, conjugates adsorbed alone from 10 mg/ml (P18 equivalents) in PBS; after washing. The method, then:
as §1

Where no end group is shown, it is not given here.

For the substance “PEI-P18 conjugates: polyethyleneimine (25 KDa) activated with SMCC and reacted with P18cys (KWKLFKKIPKFLHLAKKFC; SEQ ID NO: 27) (also: conjugated to polyethyleneimine (25 kDa) via SMCC)”, the “biofilm formation by E. coli” value is “not retained on the surface so strongly that after intensive washing enough active ingredient is present to prevent biofilm formation” in the assay with Escherichia coli (conjugates adsorbed alone from 10 mg/ml (P18 equivalents) in PBS) and “effective even after intensive washing” in the assay with Escherichia coli (two-step method: hydrophobin A coating (0.5 mg/ml), then conjugates 10 mg/ml (P18 equivalents) in PBS). Moreover, the “formation of a biofilm due to S. epidermidis” value in assay [1] is recorded as “able to prevent the formation of a biofilm”.

For the origin of these results see patent US20120094007A1, “METHOD FOR THE IMMOBILIZATION OF CATIONIC ACTIVE INGREDIENTS ON SURFACES” (BASF SE, priority 2010, published 2012).
